Measurements taken from PubChem BioAssay (NCI).
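At the GI50, growth is halved. TGI marks complete inhibition of growth.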

What was measured:
Assay in all cases: NCI anticancer screen, dose series, 384-well format
[1] = test system: 786-0 renal
[2] = test system: A498 renal
[3] = test system: A549 NSCLC
[4] = test system: ACHN renal
[5] = test system: BT-549 breast
[6] = test system: CAKI-1 renal
[7] = test system: CCRF-CEM leukemia
[8] = test system: COLO 205 colon
[9] = test system: DU-145 prostate
[10] = test system: EKVX NSCLC
[11] = test system: HCC-2998 colon
[12] = test system: HCT-116 colon
[13] = test system: HCT-15 colon
[14] = test system: HL-60(TB) leukemia
[15] = test system: HOP-62 NSCLC
[16] = test system: HOP-92 NSCLC
[17] = test system: HS 578T breast
[18] = test system: HT29 colon
[19] = test system: IGROV1 ovarian
[20] = test system: K-562 leukemia
[21] = test system: KM12 colon
[22] = test system: LOX IMVI melanoma
[23] = test system: M14 melanoma
[24] = test system: MCF7 breast
[25] = test system: MDA-MB-231 breast
[26] = test system: MDA-MB-435 melanoma
[27] = test system: MDA-MB-468 breast
[28] = test system: MOLT-4 leukemia
[29] = test system: NCI-H226 lung

SMILES: C[C@H](O)C(=O)N1CCC(CCn2c(Sc3cc4c(cc3Br)OCO4)nc3c(N)ncnc32)CC1
- GI50 [1]: 607 nM
- TGI [1]: > 100000 nM
- GI50 [2]: 901 nM
- TGI [2]: > 100000 nM
- GI50 [3]: 318 nM
- TGI [3]: > 100000 nM
- GI50 [4]: 574 nM
- TGI [4]: > 100000 nM
- GI50 [5]: 410 nM
- TGI [5]: 2820 nM
- GI50 [6]: 657 nM
- TGI [6]: 88800 nM
- GI50 [7]: 229 nM
- TGI [7]: 783 nM
- GI50 [8]: 291 nM
- TGI [8]: 1840 nM
- GI50 [9]: 420 nM
- TGI [9]: 13800 nM
- GI50 [10]: 649 nM
- TGI [10]: 25100 nM
- GI50 [11]: 127 nM
- TGI [11]: 478 nM
- GI50 [12]: 518 nM
- TGI [12]: > 100000 nM
- GI50 [13]: 757 nM
- TGI [13]: 15600 nM
- GI50 [14]: 248 nM
- TGI [14]: 523 nM
- GI50 [15]: 582 nM
- TGI [15]: 27800 nM
- GI50 [16]: 624 nM
- TGI [16]: 2370 nM
- GI50 [17]: 327 nM
- TGI [17]: 2220 nM
- GI50 [18]: 337 nM
- TGI [18]: 20300 nM
- GI50 [19]: 299 nM
- TGI [19]: 1740 nM
- GI50 [20]: 271 nM
- TGI [20]: 4700 nM
- GI50 [21]: 318 nM
- TGI [21]: 10900 nM
- GI50 [22]: 327 nM
- TGI [22]: 1070 nM
- GI50 [23]: 361 nM
- TGI [23]: 11800 nM
- GI50 [24]: 286 nM
- TGI [24]: 2810 nM
- GI50 [25]: 537 nM
- TGI [25]: 7360 nM
- GI50 [26]: 1270 nM
- TGI [26]: > 100000 nM
- GI50 [27]: 294 nM
- TGI [27]: 743 nM
- GI50 [28]: 122 nM
- TGI [28]: 268 nM
- GI50 [29]: 568 nM
